Measured values taken from patent US20250249110A1, “ANTIMICROBIAL PEPTIDE DERIVATIVE AND USE THEREOF” (SICHUAN UNIVERSITY, priority 2016, published 2025).
Where no end group is shown, it is not given here.

What was measured:
[1] = tested on: Staphylococcus aureus 33591; test: Intra-abdominally infected mouse model; format: in vivo; conditions: intravenous administration; DP7-C 1 mg/kg, VAN 20 mg/kg; vs NS group, p<0.01
Procedure: The anti-infection activity of DP7-C is determined by the intra-abdominally infected models. […]
The experimental steps are as follows: • (1) Activate Staphylococcus aureus 33591 with MHB the day before the experiment, wash the activated strains twice with normal saline on the day of the experiment, and determine the concentration of bacterial liquid for later use. • (2) To establish an abdominally infected mouse model, intraperitoneally inject the bacterial solution of 1.5×10^8 cfu/0.5 mL into each mouse. • (3) Intravenously inject the drug by group after one hour of infection, 0.1 mL/mouse. • (4) 24 h later, intraperitoneally inject 5 mL of normal saline into the mouse, gently massage the abdomen, kill the mouse and disinfect with 75% alcohol. After 5 min, scissor the abdominal cavity epithelium, make a small opening in the abdominal cavity, draw ascites as much as possible from the opening with a 1 ml syringe, and then transfer to a sterile EP tube for mixing. • (5) Dilute with normal saline at a dilution of, for example, 10×, 100×, 1000× and 10000×; take three bacterial solutions with suitable concentrations, 20 μL each, coat the MHA plate and incubate in a bacteria incubator overnight. • (6) Select a plate with 20-200 colonies and convert and calculate the amount of bacteria per milliliter in 5 milliliters of ascites.

staphylococcus aureus = conditions: background statement; cited from earlier work
red blood cells [2] = test: Hemolysis test in vitro; format: cell-based, human (healthy volunteers); conditions: FIG. 5B
Procedure: In the hemolysis test, DP7 and DP7-C at the same concentration were detected for the hemolysis of red blood cells. • 1. Take the blood of healthy volunteers and put into an anticoagulant tube and gently mix. • 2. Take out the anticoagulant, add isometric physiological saline, mix slowly and evenly, centrifuge at 400×g for 10 min, and discard the supernatant. • 3. Slowly mix the red blood cells and wash with PBS, centrifuge at 400×g for 10 min, discard the supernatant, and wash the cell precipitate with PBS for three times. • 4. Dilute with PBS to obtain 20% (v/v) red blood cell solution, which can be used immediately or stored at 4° C. for about 2 weeks (without hemolysis). • 5. Dilute the drug into a series of concentration gradients with PBS, add 100 μL of drug into a 96-well plate, take 100 μL of 2% Twain 20 as the positive control, add 100 μL of PBS to the negative control. Repeat the process 3 times for each concentration of drug. • 6. Dilute 20% (v/v) of red blood cell solution with PBS according to the volume ratio of 1:20, mix evenly and add to a 96-well plate, with the drug concentration of 100, 200, 400, 600, 800, 1000, 1200, 1600 μg/mL respectively, and incubate at 37° C. for 1 h. • 7. Incubate the mixture of drugs and red blood cells, centrifuge at 900×g for 10 min, add 160 μL of the supernatant to a new 96-well plate, and read the absorbance value at OD 450 nm. • 8. According to the absorbance value of A450, calculate the percentage of hemolysis corresponding to each concentration of drugs.
The calculation formula of the percentage of hemolysis is: […]

red blood cells [3] = conditions: cited from earlier work

Row | Compound | average colony forming unit (CFU) of Staphylococcus aureus [1] | therapeutic effect in vivo (staphylococcus aureus) | appearance of hemolysis test (red blood cells [2]) | lethality (red blood cells [3]; high concentration, intravenous injection) | hemolysis of red blood cells (red blood cells [3]; mouse, in vivo, iv)
1 | CN[C@H](CC(C)C)C(=O)N[C@H]1C(=O)N[C@@H](CC(N)=O)C(=O)N[C@H]2C(=O)N[C@H]3C(=O)N[C@H](C(=O)N[C@H](C(=O)O)c4cc(O)cc(O)c4-c4cc3ccc4O)[C@H](O)c3ccc(c(Cl)c3)Oc3cc2cc(c3O[C@@H]2O[C@H](CO)[C@@H](O)[C@H](O)[C@H]2O[C@H]2C[C@](C)(N)[C@H](O)[C@H](C)O2)Oc2ccc(cc2Cl)[C@H]1O [VAN, Vancomycin, reference compound] | significantly lower than those in NS group |  |  |  | 
2 | VQWRIRVAVIRK-NH2 [DP7, VQWRIRVAVIRK-NH2] |  | very good therapeutic effect | red blood cells are lysed | kill mice | cause hemolysis of red blood cells
